In patent publication US11917959B2, “Multi-ear system to enhance monocot plant yield” (Monsanto Technology LLC, priority 2015, dated 2024):

Columns and labels:
[1] = test system: maize inbred lines Germplasm A and LH244; experiment: Co-dominant ear induction in diploid maize inbreds (Example 5); assay type: in vivo; settings: for Ave. Ears Per Plant / Ave. Total Kernels Per Plant: Treated
Experimental: Seeds of maize inbred lines Germplasm A and LH244 were planted in soil, germinated, and then transplanted to 10-inch pots after approximately one week, one seedling per pot. The plants were subjected to a co-dominant ear induction treatment at the V8 stage comprising drenching the soil surrounding the roots of each plant with 50 mL of a 2.5% PBZ solution (v/v; 0.4% of active ingredient). The plants were tended in a greenhouse until sexual maturity, then they were self-pollinated. When seed set had completed, the number of co-dominant ears, and the total number of kernels, produced by each plant were counted. Control plants for each germplasm were processed in the same way as the treated groups, except that the control plants were not subjected to the co-dominant ear induction treatment.

[2] = test system: diploid maize plants of a common inbred line; experiment: Tiller induction in diploid maize (Example 6); assay type: in vivo
Experimental: Diploid maize plants of a common inbred line were subjected to a tiller induction treatment comprising drenching the soil surrounding the roots with 100 mL of a 2.5% PBZ solution (v/v; 0.4% of active ingredient) approximately one week after germination and then allowed to grow to sexual maturity in 10-inch pots a greenhouse. A control group of plants were grown under identical circumstances except that they were not subjected to the tiller induction treatment.
Three treatment groups were then formed from the tillers: tillers of the “Co-hab” treatment were allowed to continue growing in the same pot with the mother plant; those of the “-Mother” treatment also remained in the same pot, but the mother plant was removed from the pot; and those of the “Transplanted” treatment group were transplanted from the pot containing the mother plant into separate 10-inch pots, one plant per pot. Any naturally-occurring tillers produced by the control group were allowed to grow in the same pot as the mother plant, similar to the co-hab treatment. All plants were allowed to grow to sexual maturity and self-pollinated when silks and tassels formed. When seed set was complete, the average total number of seeds produced by all plants deriving from the same mother plant seed were counted and plotted in FIG. 3.

[3] = Germplasm A, 50 mL 2.5% PBZ at V8

SMILES: CC(C)(C)[C@@H](O)[C@@H](Cc1ccc(Cl)cc1)n1cncn1 (relative stereo) [PBZ, (±)-(R*, R*)-beta-((4-chlorophenyl)methyl)-alpha-(1,1,-dimethylethyl)-1H-1,2,4,-triazole-1-ethanol]
- Ave. Ears Per Plant [1, 3]: 8
- Ave. Total Kernels Per Plant [1, 3]: 1677
- Ave. Ears Per Plant ([1]; LH244, 50 mL 2.5% PBZ at V8): 5.1
- Ave. Total Kernels Per Plant ([1]; LH244, 50 mL 2.5% PBZ at V8): 1126
- average total kernels per plant and average ears per plant, treated vs control ([1]; both germplasms): more than doubling
- effect on mother plants ([2]; 100 mL 2.5% PBZ soil drench): shortened internodes, and induced the mother plants to produce tillers
- number of seeds vs control group ([2]; transplanted treatment group, 100 mL 2.5% PBZ one week after germination): more than twice
